{
  "source": "patent US8192962B2",
  "about": "“Processes for detecting toxic substances” (Daikin Industries, Ltd., priority 2001, dated 2012)",
  "tested_on": "Unknown protein yeast genes",
  "experiment": "DNA chip mRNA expression in yeast, unknown protein yeast genes (Table 1)",
  "type": "cell-based, Saccharomyces cerevisiae S288C",
  "procedure,_shortened": "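Value is the scanned fluorescence intensity ratio of exposed versus chemical-free cells. Log-phase S288C yeast in YPD at 25° C. received one toxic substance for two hours, dosed to slow growth without killing; Cy3/Cy5-labeled cDNA from oligo-dT-purified mRNA was hybridized to a whole-genome chip at 65° C.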",
  "data": [
    {"smiles": "C=CC=O", "note": "[(14), acrolein]", "values": [
      {"measurement": "The level of expressed mRNA in the presence of chemical substance/The level of expressed mRNA in the absence of chemical substance", "setting": "yeast gene YAL053W, incubated two hours with chemical substance", "value": 0.7},
      {"measurement": "The level of expressed mRNA in the presence of chemical substance/The level of expressed mRNA in the absence of chemical substance", "setting": "yeast gene YBL048W", "value": 2.0},
      {"measurement": "The level of expressed mRNA in the presence of chemical substance/The level of expressed mRNA in the absence of chemical substance", "setting": "yeast gene YBL107C", "value": 2.5},
      {"measurement": "The level of expressed mRNA in the presence of chemical substance/The level of expressed mRNA in the absence of chemical substance", "setting": "yeast gene YDL072C, incubated two hours with chemical substance", "value": 1.8},
      {"measurement": "The level of expressed mRNA in the presence of chemical substance/The level of expressed mRNA in the absence of chemical substance", "setting": "yeast gene YDL204W, incubated two hours with chemical substance", "value": 2.4},
      {"measurement": "The level of expressed mRNA in the presence of chemical substance/The level of expressed mRNA in the absence of chemical substance", "setting": "yeast gene YDL222C, incubated two hours with chemical substance", "value": 1.3},
      {"measurement": "The level of expressed mRNA in the presence of chemical substance/The level of expressed mRNA in the absence of chemical substance", "setting": "yeast gene YDR330W, incubated two hours with chemical substance", "value": 1.1},
      {"measurement": "The level of expressed mRNA in the presence of chemical substance/The level of expressed mRNA in the absence of chemical substance", "setting": "yeast gene YDR411C, incubated two hours with chemical substance", "value": 0.8},
      {"measurement": "The level of expressed mRNA in the presence of chemical substance/The level of expressed mRNA in the absence of chemical substance", "setting": "yeast gene YDR511W, incubated two hours with chemical substance", "value": 2.2},
      {"measurement": "The level of expressed mRNA in the presence of chemical substance/The level of expressed mRNA in the absence of chemical substance", "setting": "yeast gene YDR545W, incubated two hours with chemical substance", "value": 0.7},
      {"measurement": "The level of expressed mRNA in the presence of chemical substance/The level of expressed mRNA in the absence of chemical substance", "setting": "yeast gene YEL001C, incubated two hours with chemical substance", "value": 1.3},
      {"measurement": "The level of expressed mRNA in the presence of chemical substance/The level of expressed mRNA in the absence of chemical substance", "setting": "yeast gene YER004W, incubated two hours with chemical substance", "value": 1.8},
      {"measurement": "The level of expressed mRNA in the presence of chemical substance/The level of expressed mRNA in the absence of chemical substance", "setting": "yeast gene YER035W, incubated two hours with chemical substance", "value": 1.0},
      {"measurement": "The level of expressed mRNA in the presence of chemical substance/The level of expressed mRNA in the absence of chemical substance", "setting": "yeast gene YER079W, incubated two hours with chemical substance", "value": 1.6},
      {"measurement": "The level of expressed mRNA in the presence of chemical substance/The level of expressed mRNA in the absence of chemical substance", "setting": "yeast gene YER106W, incubated two hours with chemical substance", "value": 1.5},
      {"measurement": "The level of expressed mRNA in the presence of chemical substance/The level of expressed mRNA in the absence of chemical substance", "setting": "yeast gene YER158C, incubated two hours with chemical substance", "value": 0.9},
      {"measurement": "The level of expressed mRNA in the presence of chemical substance/The level of expressed mRNA in the absence of chemical substance", "setting": "yeast gene YER163C, incubated two hours with chemical substance", "value": 1.9},
      {"measurement": "The level of expressed mRNA in the presence of chemical substance/The level of expressed mRNA in the absence of chemical substance", "setting": "yeast gene YER175C, incubated two hours with chemical substance", "value": 1.1},
      {"measurement": "The level of expressed mRNA in the presence of chemical substance/The level of expressed mRNA in the absence of chemical substance", "setting": "yeast gene YFL006W, incubated two hours with chemical substance", "value": 1.7},
      {"measurement": "The level of expressed mRNA in the presence of chemical substance/The level of expressed mRNA in the absence of chemical substance", "setting": "yeast gene YFL010C, incubated two hours with chemical substance", "value": 1.4},
      {"measurement": "The level of expressed mRNA in the presence of chemical substance/The level of expressed mRNA in the absence of chemical substance", "setting": "yeast gene YFL024C", "value": 3.3},
      {"measurement": "The level of expressed mRNA in the presence of chemical substance/The level of expressed mRNA in the absence of chemical substance", "setting": "yeast gene YFL032W, incubated two hours with chemical substance", "value": 0.6},
      {"measurement": "The level of expressed mRNA in the presence of chemical substance/The level of expressed mRNA in the absence of chemical substance", "setting": "yeast gene YGL037C, incubated two hours with chemical substance", "value": 1.0},
      {"measurement": "The level of expressed mRNA in the presence of chemical substance/The level of expressed mRNA in the absence of chemical substance", "setting": "yeast gene YGL047W, incubated two hours with chemical substance", "value": 2.3},
      {"measurement": "The level of expressed mRNA in the presence of chemical substance/The level of expressed mRNA in the absence of chemical substance", "setting": "yeast gene YGL053W, incubated two hours with chemical substance", "value": 1.1},
      {"measurement": "The level of expressed mRNA in the presence of chemical substance/The level of expressed mRNA in the absence of chemical substance", "setting": "yeast gene YGL121C", "value": 5.8},
      {"measurement": "The level of expressed mRNA in the presence of chemical substance/The level of expressed mRNA in the absence of chemical substance", "setting": "yeast gene YGL199C, incubated two hours with chemical substance", "value": 0.8},
      {"measurement": "The level of expressed mRNA in the presence of chemical substance/The level of expressed mRNA in the absence of chemical substance", "setting": "yeast gene YGR101W, incubated two hours with chemical substance", "value": 0.9},
      {"measurement": "The level of expressed mRNA in the presence of chemical substance/The level of expressed mRNA in the absence of chemical substance", "setting": "yeast gene YGR110W", "value": 2.8},
      {"measurement": "The level of expressed mRNA in the presence of chemical substance/The level of expressed mRNA in the absence of chemical substance", "setting": "yeast gene YGR130C, incubated two hours with chemical substance", "value": 0.9},
      {"measurement": "The level of expressed mRNA in the presence of chemical substance/The level of expressed mRNA in the absence of chemical substance", "setting": "yeast gene YGR154C, incubated two hours with chemical substance", "value": 2.2},
      {"measurement": "The level of expressed mRNA in the presence of chemical substance/The level of expressed mRNA in the absence of chemical substance", "setting": "yeast gene YGR221C, incubated two hours with chemical substance", "value": 1.4},
      {"measurement": "The level of expressed mRNA in the presence of chemical substance/The level of expressed mRNA in the absence of chemical substance", "setting": "yeast gene YHR138C, incubated two hours with chemical substance", "value": 3.4},
      {"measurement": "The level of expressed mRNA in the presence of chemical substance/The level of expressed mRNA in the absence of chemical substance", "setting": "yeast gene YHR199C, incubated two hours with chemical substance", "value": 2.0},
      {"measurement": "The level of expressed mRNA in the presence of chemical substance/The level of expressed mRNA in the absence of chemical substance", "setting": "yeast gene YIL023C, incubated two hours with chemical substance", "value": 0.7},
      {"measurement": "The level of expressed mRNA in the presence of chemical substance/The level of expressed mRNA in the absence of chemical substance", "setting": "yeast gene YIL041W, incubated two hours with chemical substance", "value": 1.3},
      {"measurement": "The level of expressed mRNA in the presence of chemical substance/The level of expressed mRNA in the absence of chemical substance", "setting": "yeast gene YIL087C, incubated two hours with chemical substance", "value": 1.3},
      {"measurement": "The level of expressed mRNA in the presence of chemical substance/The level of expressed mRNA in the absence of chemical substance", "setting": "yeast gene YJL057C, incubated two hours with chemical substance", "value": 1.6},
      {"measurement": "The level of expressed mRNA in the presence of chemical substance/The level of expressed mRNA in the absence of chemical substance", "setting": "yeast gene YJL066C, incubated two hours with chemical substance", "value": 1.0},
      {"measurement": "The level of expressed mRNA in the presence of chemical substance/The level of expressed mRNA in the absence of chemical substance", "setting": "yeast gene YJL082W, incubated two hours with chemical substance", "value": 0.5},
      {"measurement": "The level of expressed mRNA in the presence of chemical substance/The level of expressed mRNA in the absence of chemical substance", "setting": "yeast gene YJL151C, incubated two hours with chemical substance", "value": 1.3},
      {"measurement": "The level of expressed mRNA in the presence of chemical substance/The level of expressed mRNA in the absence of chemical substance", "setting": "yeast gene YJL152W, incubated two hours with chemical substance", "value": 1.4},
      {"measurement": "The level of expressed mRNA in the presence of chemical substance/The level of expressed mRNA in the absence of chemical substance", "setting": "yeast gene YJL161W, incubated two hours with chemical substance", "value": 2.2},
      {"measurement": "The level of expressed mRNA in the presence of chemical substance/The level of expressed mRNA in the absence of chemical substance", "setting": "yeast gene YJL171C, incubated two hours with chemical substance", "value": 1.0},
      {"measurement": "The level of expressed mRNA in the presence of chemical substance/The level of expressed mRNA in the absence of chemical substance", "setting": "yeast gene YJR008W, incubated two hours with chemical substance", "value": 1.2},
      {"measurement": "The level of expressed mRNA in the presence of chemical substance/The level of expressed mRNA in the absence of chemical substance", "setting": "yeast gene YJR054W, incubated two hours with chemical substance", "value": 1.2},
      {"measurement": "The level of expressed mRNA in the presence of chemical substance/The level of expressed mRNA in the absence of chemical substance", "setting": "yeast gene YKL071W", "value": 21.9},
      {"measurement": "The level of expressed mRNA in the presence of chemical substance/The level of expressed mRNA in the absence of chemical substance", "setting": "yeast gene YKL086W, incubated two hours with chemical substance", "value": 2.9},
      {"measurement": "The level of expressed mRNA in the presence of chemical substance/The level of expressed mRNA in the absence of chemical substance", "setting": "yeast gene YKL107W", "value": 3.4},
      {"measurement": "The level of expressed mRNA in the presence of chemical substance/The level of expressed mRNA in the absence of chemical substance", "setting": "yeast gene YKL151C, incubated two hours with chemical substance", "value": 1.3},
      {"measurement": "The level of expressed mRNA in the presence of chemical substance/The level of expressed mRNA in the absence of chemical substance", "setting": "yeast gene YKL153W, incubated two hours with chemical substance", "value": 1.1}
    ]}
  ]
}
